Test results taken from US11261230B2, “Synthetic somatostatin receptor ligands” (TEL HASHOMER MEDICAL RESEARCH INFRASTRUCTURE AND SERVICES …, priority 2014, dated 2022).
*1 amine or outer side, *2 acyl side, *3 side chain or, on linkers, in order; H or OH if unused. Where a SMILES comes first, the peptide text is derived from it. Bridges are numbered along the chain shown (N, C = ends). [ ]: non-standard residue; d: D form. The star is where a group is joined. FITC = O=C1OC2(c3ccc(O)cc3Oc3cc(O)ccc32)c2ccc(NC(=S)*)cc21; N(2-mercaptoethyl)Gly = O=C(CN(CCS[*:3])[*:1])[*:2]; Aib = CC(C)(N)C(=O)O; GABA = NCCCC(=O)O

Experiments:
[1] = tested on: PANC-1 tumors; details: mouse, in vivo
Protocol: Five different pharmaceutical compositions were prepared, each by dissolving 1 mg of a different Somatostatin receptor ligand in 1 liter PBS.
Solid human-derived tumors were induced in 15 nude mice by subcutaneous injection of a suspension containing ˜5□10^5 human cancer cells (PANC-1) into the flank area of the mice.
2-3 weeks after the injection of the cancer cells, it was observed that the mice developed solid tumors with diameters of approximately 5-10 mm.
0.3 ml of each one of the five pharmaceutical compositions were systemically administered to three of the fifteen xenograft mice by injection into the tail vein using a 30 G needle.
The fifteen mice were sacrificed and from the bodies tumors, pancreas, spleen, kidney and liver were harvested.
The fluorescence of the harvested tissue was determined using the Maestro™ in vivo fluorescence imaging system (Cambridge Research & Instrumentation, Inc., Woburn, Mass., USA).

[2] = target: T1, human SSTR1 (Homo sapiens, UniProt P30872); assay: Binding to transfected HEK cells expressing a single SSTRx subtype, FACS
T1 construct: expressed in transfected cells; host or cells: HEK-293, transient transfection, pcDNA 3.1
T1 sequence (P30872 whole entry): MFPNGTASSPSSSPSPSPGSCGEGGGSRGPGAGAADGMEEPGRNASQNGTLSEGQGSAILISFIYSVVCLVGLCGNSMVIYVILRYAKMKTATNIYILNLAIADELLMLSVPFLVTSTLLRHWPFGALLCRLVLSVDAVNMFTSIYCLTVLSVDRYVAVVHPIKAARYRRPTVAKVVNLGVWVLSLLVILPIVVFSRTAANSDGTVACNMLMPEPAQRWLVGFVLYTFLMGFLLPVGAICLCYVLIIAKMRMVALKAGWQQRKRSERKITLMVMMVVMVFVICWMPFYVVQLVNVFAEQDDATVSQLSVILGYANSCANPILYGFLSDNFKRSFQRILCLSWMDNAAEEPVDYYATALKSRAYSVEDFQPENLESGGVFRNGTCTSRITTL
Protocol: (§1) The affinity of compounds 1-16 to each of the five SSTRx was tested using an in vitro model of transfected cell lines (HEK—human embryonic kidney), each expressing a single human SSTRx subtype. Biological activity assessment of the compounds to define a specific affinity to each subtype was performed by FACS and fluorescence imaging methods.
(§2) Human SSTRx were expressed in the cells by transient transfection. Each SSTR was expressed separately, creating five different cell lines using human gene transcript.
(§3) The transfection process is illustrated in FIG. 1. The transient transfection process was carried out before each experiment. Briefly, HEK cells were cultured in standard cell growth conditions. For testing, the cells were transferred into 96-well plates. The tested compounds were dissolved in DMSO and then diluted in a buffer solution to a final DMSO concentration of 5% as a composition according to the teachings herein. Various amounts of the thus-prepared compositions were added to the cells in medium in the 96-well plates and allowed to incubate for between 1 and 24 hours. Binding was determined using fluorescent microscopy and FACS.
(§4) Qualitative assessment of binding efficiency was done by visual inspection and digital photography using an inverted fluorescent microscope. Quantitative assessment was done using FACS.
(§5) HEK-293 cells (human embryonic kidney) were grown in Dulbecco's modified Eagle's medium (DMEM) supplemented with 4 mM glutamine, 10% fetal bovine serum (FBS) and 100 units/ml penicillin/streptomycin at 37° C./5% carbon dioxide. One day prior to transfection, the cells were trypsinized, counted and plated at a density of 3×10^5 per 35 mm diameter dish. Until 70% confluency, cells were transiently transfected with the pcDNA 3.1 vector bearing the coding region for the human SSTR human somatostatin receptor subtypes SSTR1-SSTR5. Transfections were carried out with JetPei transfection reagent (Polyplus-transfection, NY, USA) according to the manufacturer's recommendation. Briefly, 2 micrograms of plasmid DNA and 6 microliter of JetPei transfection reagent were used for each transfection. Each of the components were resuspended in 100 microliter of 150 mM NaCl, mixed and incubated for 25 minutes at room temperature and after incubation added to cells.
(§6) Cells were then seeded in a 96-well flat-bottom microplate (Costar, Corning, N.Y.) at a concentration of 5×10^4 cells/well. Twelve hours later, the supernatant was removed and replaced with fresh DMEM containing various (in the nM range) concentrations of tested compounds 1-16. The cells were incubated for additional time intervals ranging from 0.5-24 hr. At the end of the incubation period, supernatant was discarded and the cells were washed twice with cold PBS. The plates were examined using IX81 inverted microscope (Olympus, Japan) equipped with […] digital camera. Additionally, a FACS assay was used for quantitative analysis.
(§7) Quantitative assessment of binding affinity of Compounds 1-16 was performed by FACS in the transfected HEK cell model.
(§8) Quantitatively, specific binding affinity was assessed as the percentage of double stained [(GR=green and red indicating transfection)/(R is total red) less (G is green indicating unspecific binding)]: specific binding affinity=[GR/R−G]

[3] = target: T2, human SSTR2 (Homo sapiens, UniProt P30874); assay: as above
T2 construct: expressed in transfected cells; host or cells: HEK-293, transient transfection, pcDNA 3.1
T2 sequence (P30874 whole entry): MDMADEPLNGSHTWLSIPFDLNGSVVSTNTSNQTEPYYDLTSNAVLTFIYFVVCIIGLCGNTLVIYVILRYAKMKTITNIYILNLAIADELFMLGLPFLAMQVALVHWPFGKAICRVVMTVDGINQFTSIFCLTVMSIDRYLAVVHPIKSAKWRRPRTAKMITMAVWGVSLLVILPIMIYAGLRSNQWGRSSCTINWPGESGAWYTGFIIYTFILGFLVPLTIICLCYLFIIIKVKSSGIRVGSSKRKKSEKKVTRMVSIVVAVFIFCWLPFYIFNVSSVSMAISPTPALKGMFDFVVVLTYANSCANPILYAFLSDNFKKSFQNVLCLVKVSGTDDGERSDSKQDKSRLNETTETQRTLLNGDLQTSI
Protocol: as §1, §2, §3, §4, §5, §6, §7, §8

[4] = target: T3, human SSTR3 (Homo sapiens, UniProt P32745); assay: as above
T3 construct: expressed in transfected cells; host or cells: HEK-293, transient transfection, pcDNA 3.1
T3 sequence (P32745 whole entry): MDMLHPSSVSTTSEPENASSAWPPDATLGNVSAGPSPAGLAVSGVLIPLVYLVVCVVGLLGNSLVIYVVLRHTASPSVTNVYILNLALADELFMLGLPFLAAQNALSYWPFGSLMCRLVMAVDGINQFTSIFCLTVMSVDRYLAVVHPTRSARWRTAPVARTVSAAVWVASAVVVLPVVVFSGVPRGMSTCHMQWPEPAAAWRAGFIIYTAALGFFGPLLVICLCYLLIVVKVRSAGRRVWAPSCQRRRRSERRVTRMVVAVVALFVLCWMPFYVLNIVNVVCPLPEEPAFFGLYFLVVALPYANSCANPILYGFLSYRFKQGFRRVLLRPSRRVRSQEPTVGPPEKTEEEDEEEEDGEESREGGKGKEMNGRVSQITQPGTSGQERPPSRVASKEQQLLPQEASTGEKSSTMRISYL
Protocol: as §1, §2, §3, §4, §5, §6, §7, §8

[5] = target: T4, human SSTR4 (Homo sapiens, UniProt P31391); assay: as above
T4 construct: expressed in transfected cells; host or cells: HEK-293, transient transfection, pcDNA 3.1
T4 sequence (P31391 whole entry): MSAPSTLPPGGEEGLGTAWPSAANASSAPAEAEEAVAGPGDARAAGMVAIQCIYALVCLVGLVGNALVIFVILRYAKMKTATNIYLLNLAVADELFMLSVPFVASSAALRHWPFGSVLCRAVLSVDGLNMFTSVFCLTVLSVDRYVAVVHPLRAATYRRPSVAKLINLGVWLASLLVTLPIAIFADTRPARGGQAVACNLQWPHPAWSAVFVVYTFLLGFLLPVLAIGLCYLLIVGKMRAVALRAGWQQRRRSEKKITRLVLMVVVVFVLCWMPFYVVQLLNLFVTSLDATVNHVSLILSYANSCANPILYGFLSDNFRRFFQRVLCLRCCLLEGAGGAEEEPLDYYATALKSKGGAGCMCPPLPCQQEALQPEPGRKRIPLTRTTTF
Protocol: as §1, §2, §3, §4, §5, §6, §7, §8

[6] = target: T5, human SSTR5 (Homo sapiens, UniProt P35346); assay: Binding to transfected HEK cells expressing a single SSTRx subtype, FACS and fluorescence microscopy
T5 construct: expressed in transfected cells; host or cells: HEK-293, transient transfection, pcDNA 3.1
T5 sequence (P35346 whole entry): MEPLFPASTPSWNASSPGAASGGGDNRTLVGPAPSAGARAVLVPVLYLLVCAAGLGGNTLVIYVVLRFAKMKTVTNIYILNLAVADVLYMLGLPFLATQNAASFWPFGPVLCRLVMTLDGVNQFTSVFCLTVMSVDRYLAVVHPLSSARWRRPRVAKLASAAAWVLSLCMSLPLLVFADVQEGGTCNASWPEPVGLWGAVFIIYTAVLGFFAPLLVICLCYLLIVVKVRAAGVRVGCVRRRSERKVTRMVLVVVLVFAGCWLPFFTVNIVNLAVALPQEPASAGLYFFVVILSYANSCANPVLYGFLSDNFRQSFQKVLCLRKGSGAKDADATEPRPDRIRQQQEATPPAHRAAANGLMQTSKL
Protocol: as §1, §2, §3, §4, §5, §6, §7, §8

[7] = tested on: SSTR1-SSTR5; assay: Binding specificity across the five SSTRx transfected HEK cell lines; set-up: species or system human; details: conclusions drawn from Table 2-A
Protocol: Biological activity assessment of the compounds to define a specific affinity to each subtype was performed by FACS and fluorescence imaging methods. Human SSTRx were expressed in the cells by transient transfection. Each SSTR was expressed separately, creating five different cell lines using human gene transcript. The transfection process is illustrated in FIG. 1. The transient transfection process was carried out before each experiment. Briefly, HEK cells were cultured in standard cell growth conditions. For testing, the cells were transferred into 96-well plates. The tested compounds were dissolved in DMSO and then diluted in a buffer solution to a final DMSO concentration of 5% as a composition according to the teachings herein. Various amounts of the thus-prepared compositions were added to the cells in medium in the 96-well plates and allowed to incubate for between 1 and 24 hours. Binding was determined using fluorescent microscopy and FACS. Cells were then seeded in a 96-well flat-bottom microplate (Costar, Corning, N.Y.) at a concentration of 5×10^4 cells/well. […] Additionally, a FACS assay was used for quantitative analysis. […] Quantitatively, specific binding affinity was assessed as the percentage of double stained [(GR=green and red indicating transfection)/(R is total red) less (G is green indicating unspecific binding)]: specific binding affinity=[GR/R−G]

[8] = FACS, transfected HEK, specific binding affinity = percentage double stained [GR/R−G], 0 = no binding detected
[9] = Table 2 normalized according to the highest binding affinity of that compound
[10] = Table 2 normalized to Compound 1 (=100)

Row | SMILES | Intensity in healthy tissue (in words) [1] | Relative binding affinity SSTR1 [2, 8] | Adjusted binding affinity SSTR1 [2, 9] | Binding affinity to SSTR1 relative to Compound 1 [2, 10] | Relative binding affinity SSTR2 [3, 8] | Adjusted binding affinity SSTR2 [3, 9] | Binding affinity to SSTR2 relative to Compound 1 [3, 10] | Relative binding affinity SSTR3 [4, 8] | Adjusted binding affinity SSTR3 [4, 9] | Binding affinity to SSTR3 relative to Compound 1 [4, 10] | Relative binding affinity SSTR4 [5, 8] | Adjusted binding affinity SSTR4 [5, 9] | Binding affinity to SSTR4 relative to Compound 1 [5, 10] | Relative binding affinity SSTR5 [6, 8] | Adjusted binding affinity SSTR5 [6, 9] | Binding affinity to SSTR5 relative to Compound 1 [6, 10] | Binding specificity among the five SSTRx (in words) [7]
1 | C[C@@H](O)[C@@H]1NC(=O)[C@H](CCCCN)NC(=O)[C@@H](Cc2c[nH]c3ccccc23)NC(=O)[C@H](Cc2ccccc2)NC(=O)[C@H](CCCNC(=N)N)NC(=O)[C@@H](NC(=O)CCCNC(=S)Nc2ccc3c(c2)C(=O)OC32c3ccc(O)cc3Oc3cc(O)ccc32)CSSCCN(CC(N)=O)C(=O)[C@H](Cc2ccccc2)NC1=O [Compound 9, FITC-GABA-Cys-Arg-Phe-D-Trp-Lys-Thr-Phe-GlyS2] ({FITC-GABA}-CRF[dW]KTF[N(2-mercaptoethyl)Gly]-NH2; disulfide 1-8) | undetectable in the healthy tissues | – | – | – | – | – | – | – | – | – | – | – | – | – | – | – | –
2 | C[C@@H](O)[C@@H]1NC(=O)C(C)(C)NC(=O)[C@@H](Cc2c[nH]c3ccccc23)NC(=O)[C@H](Cc2c[nH]c3ccccc23)NC(=O)[C@H](Cc2ccccc2)NC(=O)[C@@H](NC(=O)[C@@H](Cc2ccccc2)NC(=O)CCCNC(=S)Nc2ccc3c(c2)C(=O)OC32c3ccc(O)cc3Oc3cc(O)ccc32)CSSCCN(CC(N)=O)C(=O)[C@H](Cc2ccccc2)NC1=O [Compound 13, FITC-GABA-D-Phe-Cys-Phe-Trp-D-Trp-Aib-Thr-Phe-GlyS2] ({FITC-GABA}-[dF]CFW[dW][Aib]TF[N(2-mercaptoethyl)Gly]-NH2; disulfide 2-9) | – | 1 | 0.11 | 33 | 0 | 0 | 0 | 6 | 0.67 | 35 | 4 | 0.44 | 18 | 9 | 1 | 32 | to SSTR3 and SSTR5 and not SSTR1, SSTR2 and SSTR4
